Measured values taken from patent US20260174762A1, “OLCEGEPANT FOR TREATING SEPSIS” (Boehringer Ingelheim International GmbH, priority 2022, published 2026).

Assays:
[1] = test system: CLP-induced polymicrobial sepsis; experiment: Chronic model of CLP: survival rate; format: in vivo, mouse; settings: 30 mg/kg s.c. 2 h after CLP induction and once daily from day 1 to day 6; 10 mice per group
Procedure: Two models were performed: • A cute model of CLP lasting 24 h to measure vascular hyper-permeability in lung, liver, kidney and heart tissue. The vascular hyper-permeability was followed by the extravasation of Evans blue injected intravenously and diffused and accumulated into the tissue. The vascular hyper-permeability was expressed as μg of Evans blue in 100 mg of dry tissue. • Chronic model of CLP lasting 8 days. CLP is performed on day 0 and the survival rate is followed for 8 consecutive days
On day 0, mice were anesthetized with ketamine (80 mg kg^−1, i.p.) and xylazine (10 mg kg^−1, i.p.). A 1-1.5 cm abdominal midline incision was made, and the caecum was located and tightly ligated at half the distance between distal pole and the base of the caecum with 4-0 silk suture (mild grade). The caecum was punctured through-and-through once with a 21-gauge needle after medium ligation. A small amount of stool was extruded to ensure that the wounds were patent. Then the cecum was replaced in its original position within the abdomen, which was closed with sutures in layers. For negative control animals, a sham surgery was performed: sham-operated animals underwent identical laparotomy but without cecal ligation or puncture. The animals were resuscitated immediately after surgery with 1 mL subcutaneous normal saline and returned to their cages. […]

[2] = test system: mouse CLP model; settings: WO 2018/154015, cited from earlier work
[3] = test system: pig sepsis model; settings: intravenous bolus injection; cited from earlier work

NCCCC[C@H](NC(=O)[C@@H](Cc1cc(Br)c(O)c(Br)c1)NC(=O)N1CCC(N2Cc3ccccc3NC2=O)CC1)C(=O)N1CCN(c2ccncc2)CC1 [olcegepant]
survival rate at day 8 [1]: 20%
mice rescued at day 4 ([2]; 100 mg/kg subcutaneous twice daily, mouse CLP model): 20%
mice rescued ([2]; subcutaneous bolus injection, mouse sepsis model): 2 out of 10
survival improvement [3]: did not show any survival improvement
